The values that follow come from PubChem BioAssay (NCI).

Molecules are shown by their SMILES.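 Results reflect a 48-hour exposure of cells in 96-well plates to compound at five concentrations. The concentration for full growth arrest is given as TGI.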

The first experiment relates to HCC-2998 colon. As to the kind of experiment: DTP human tumour cell line panel, 48 h.
`Nc1ccccc1CCN1CCN(CCCc2ccccc2)CC1` registered a TGI of 39 µM.
Same read-out and setting: under `O=c1oc2ccccc2c(Nc2ccc3c(c2)Sc2ccccc2O3)c1[N+](=O)[O-]` stands 39.9 µM.

The test system of a further experiment is SW-620 colon. As to the kind of experiment: DTP human tumour cell line panel, 48 h.
Consider `O=C(O)CO[C@@]12C#C/C=C\C#C[C@@H]3N(C(=O)Oc4ccccc4)c4ccccc4[C@]14O[C@@]34CCC2`, for which the total growth inhibition concentration (TGI) was greater than 100 µM.
Take `N[C@@H]1CCN(c2c(F)cc3c(=O)c(C(=O)O)cn4c3c2Oc2c-4ccc3c2ccc2ccccc23)C1`: the concentration for total growth inhibition (TGI) is greater than 100 µM.
`COc1c(=O)cc2cc[nH]c3cc[nH]c1c23`: the total growth inhibition concentration (TGI) is greater than 100 µM.
Take `CCCCC1(NN=C2CCCCC2)C(=O)N(c2ccccc2)N(c2ccccc2)C1=O`: the TGI is greater than 100 µM.
On the same count and under the same terms, then `Cc1nc2ccc(Br)cc2c(=O)n1-c1nnc(C(C)(C)C)s1`, with greater than 10 µM; and `Cc1ccc(C2(O)CSC(=NC34CC5CC(CC(C5)C3)C4)N2C(P(=O)(O)O)P(=O)(O)O)cc1` (stereo unspecified), with greater than 100 µM.
Same read-out and setting: under `CCOC(=O)c1sc(=S)n(-c2ccc(Cl)cc2)c1-n1cc(-c2ccccc2)c(C#N)c1N` stands greater than 100 µM; under `COC1(OC)N=C(N)C2(C#N)C(c3ccccc3)NC3=C(CCC3)C12C#N` (stereo unspecified), greater than 100 µM; under `COC(=O)[C@@H]1C[C@H]2OC(=O)CC[C@]2(C)O[C@H]1[C@H]1O[C@@](C)(O)CCC[C@H]1C`, greater than 50 µM.
On to `Cc1c(N2C(=O)C(Cl)C2/C=C/c2ccccc2)c(=O)n(-c2ccccc2)n1C` (stereo unspecified), for which the TGI was 82.1 µM.
Turning to `CC[C@@H](C)[C@H](NC(=O)[C@H](Cc1ccccc1)NCC(F)(F)F)C(=O)OC(C)(C)C`, the concentration for total growth inhibition (TGI) is greater than 100 µM.
The same measure, in the same setting: then `Nc1ccccc1CCN1CCN(CCCc2ccccc2)CC1`, with greater than 100 µM.

The next experiment concerns UACC-257 melanoma. As to the kind of experiment: DTP human tumour cell line panel, 48 h.
For the compound `O=C(O)CO[C@@]12C#C/C=C\C#C[C@@H]3N(C(=O)Oc4ccccc4)c4ccccc4[C@]14O[C@@]34CCC2`, the TGI was greater than 100 µM.
Still for that read-out and setting: under `N[C@@H]1CCN(c2c(F)cc3c(=O)c(C(=O)O)cn4c3c2Oc2c-4ccc3c2ccc2ccccc23)C1` stands greater than 100 µM; under `COc1c(=O)cc2cc[nH]c3cc[nH]c1c23`, greater than 100 µM.
The same measure, in the same setting: under `CCCCC1(NN=C2CCCCC2)C(=O)N(c2ccccc2)N(c2ccccc2)C1=O` stands greater than 100 µM; under `Cc1nc2ccc(Br)cc2c(=O)n1-c1nnc(C(C)(C)C)s1`, greater than 10 µM; under `CCOC(=O)c1sc(=S)n(-c2ccc(Cl)cc2)c1-n1cc(-c2ccccc2)c(C#N)c1N`, greater than 100 µM.
Turning to `COC1(OC)N=C(N)C2(C#N)C(c3ccccc3)NC3=C(CCC3)C12C#N` (stereo unspecified), the concentration for total growth inhibition (TGI) is greater than 100 µM.
Same read-out and setting: then `COC(=O)[C@@H]1C[C@H]2OC(=O)CC[C@]2(C)O[C@H]1[C@H]1O[C@@](C)(O)CCC[C@H]1C`, with greater than 50 µM.
`CN(/N=C/c1ccc(C(=O)O)cc1)C1=NCCCCN1`: the TGI is greater than 100 µM.
Regarding `Cc1c(N2C(=O)C(Cl)C2/C=C/c2ccccc2)c(=O)n(-c2ccccc2)n1C` (stereo unspecified), the TGI came to 33 µM.
Take `CC[C@@H](C)[C@H](NC(=O)[C@H](Cc1ccccc1)NCC(F)(F)F)C(=O)OC(C)(C)C`: the TGI was greater than 100 µM.
On the same count and under the same terms, then `Nc1ccccc1CCN1CCN(CCCc2ccccc2)CC1`, with greater than 100 µM; and `O=c1oc2ccccc2c(Nc2ccc3c(c2)Sc2ccccc2O3)c1[N+](=O)[O-]`, with 55.7 µM.

The test system of another experiment is MDA-N. As to the kind of experiment: DTP human tumour cell line panel, 48 h.
In the case of `O=C(O)CO[C@@]12C#C/C=C\C#C[C@@H]3N(C(=O)Oc4ccccc4)c4ccccc4[C@]14O[C@@]34CCC2`, the concentration for total growth inhibition (TGI) is 34.5 µM.
Regarding `N[C@@H]1CCN(c2c(F)cc3c(=O)c(C(=O)O)cn4c3c2Oc2c-4ccc3c2ccc2ccccc23)C1`, the TGI is greater than 100 µM.
`COc1c(=O)cc2cc[nH]c3cc[nH]c1c23`: the TGI is greater than 100 µM.
Still for that read-out and setting: under `CCCCC1(NN=C2CCCCC2)C(=O)N(c2ccccc2)N(c2ccccc2)C1=O` stands greater than 100 µM; under `Cc1nc2ccc(Br)cc2c(=O)n1-c1nnc(C(C)(C)C)s1`, greater than 10 µM.
On the same count and under the same terms, then `Cc1ccc(C2(O)CSC(=NC34CC5CC(CC(C5)C3)C4)N2C(P(=O)(O)O)P(=O)(O)O)cc1` (stereo unspecified), with greater than 100 µM; and `CCOC(=O)c1sc(=S)n(-c2ccc(Cl)cc2)c1-n1cc(-c2ccccc2)c(C#N)c1N`, with greater than 100 µM; and `COC1(OC)N=C(N)C2(C#N)C(c3ccccc3)NC3=C(CCC3)C12C#N` (stereo unspecified), with greater than 100 µM.
Same read-out and setting: then `COC(=O)[C@@H]1C[C@H]2OC(=O)CC[C@]2(C)O[C@H]1[C@H]1O[C@@](C)(O)CCC[C@H]1C`, with greater than 50 µM.
`CN(/N=C/c1ccc(C(=O)O)cc1)C1=NCCCCN1` came in with a TGI greater than 100 µM.
The same measure, in the same setting: under `Cc1c(N2C(=O)C(Cl)C2/C=C/c2ccccc2)c(=O)n(-c2ccccc2)n1C` (stereo unspecified) stands 40 µM.
For `CC[C@@H](C)[C@H](NC(=O)[C@H](Cc1ccccc1)NCC(F)(F)F)C(=O)OC(C)(C)C`, the total growth inhibition concentration (TGI) was greater than 100 µM.
On to `Nc1ccccc1CCN1CCN(CCCc2ccccc2)CC1`, for which the TGI was greater than 100 µM.
Take `O=c1oc2ccccc2c(Nc2ccc3c(c2)Sc2ccccc2O3)c1[N+](=O)[O-]`: the TGI was greater than 100 µM.

Another experiment concerns LOX IMVI melanoma. Description: DTP human tumour cell line panel, 48 h.
As to `O=C(O)CO[C@@]12C#C/C=C\C#C[C@@H]3N(C(=O)Oc4ccccc4)c4ccccc4[C@]14O[C@@]34CCC2`, the TGI was greater than 100 µM.
The compound `N[C@@H]1CCN(c2c(F)cc3c(=O)c(C(=O)O)cn4c3c2Oc2c-4ccc3c2ccc2ccccc23)C1` yielded a TGI greater than 100 µM.
`COc1c(=O)cc2cc[nH]c3cc[nH]c1c23` displayed a TGI greater than 100 µM.
Compound `Cc1nc2ccc(Br)cc2c(=O)n1-c1nnc(C(C)(C)C)s1` gave a TGI greater than 10 µM.
Still for that read-out and setting: then `CCOC(=O)c1sc(=S)n(-c2ccc(Cl)cc2)c1-n1cc(-c2ccccc2)c(C#N)c1N`, with greater than 100 µM; and `COC1(OC)N=C(N)C2(C#N)C(c3ccccc3)NC3=C(CCC3)C12C#N` (stereo unspecified), with greater than 100 µM.
`COC(=O)[C@@H]1C[C@H]2OC(=O)CC[C@]2(C)O[C@H]1[C@H]1O[C@@](C)(O)CCC[C@H]1C` showed a TGI greater than 50 µM.
Still for that read-out and setting: under `CN(/N=C/c1ccc(C(=O)O)cc1)C1=NCCCCN1` stands greater than 100 µM; under `Cc1c(N2C(=O)C(Cl)C2/C=C/c2ccccc2)c(=O)n(-c2ccccc2)n1C` (stereo unspecified), 34.5 µM; under `CC[C@@H](C)[C@H](NC(=O)[C@H](Cc1ccccc1)NCC(F)(F)F)C(=O)OC(C)(C)C`, greater than 100 µM.

One may read the TGI as the concentration at which net growth stops. Read a high TGI as lower sensitivity of the cells.
